Where a name gives a salt, the structure may show the parent alone.
Tests used:
[1] = target: Ras GEF SOS (Son of Sevenless) (Homo sapiens, UniProt Q07889); experiment: SOS-mediated nucleotide exchange on Ras (BODIPY-GDP fluorescence); assay type: biochemical; conditions: SOS-mediated exchange of BODIPY-GDP for GTP on Ras
Method in brief: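 Ras loaded with BODIPY-GDP was mixed in buffer with test compound, then GTP and SOS. Fluorescence change from labeled GDP/GTP exchange was followed over time, and rates came from single-exponential fits. EC50 came from a four-parameter fit of mean rate against compound concentration.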

Son of Sevenless (SOS) = target: T1, Son of Sevenless (SOS) (Homo sapiens, UniProt Q07889); experiment: Binding to SOS, fluorescence polarization anisotropy (FPA) probe displacement; conditions: displacement of FITC-conjugated probe (Example 285), affinity calculated from IC50
T1 sequence (Q07889 564-1049 limits assumed): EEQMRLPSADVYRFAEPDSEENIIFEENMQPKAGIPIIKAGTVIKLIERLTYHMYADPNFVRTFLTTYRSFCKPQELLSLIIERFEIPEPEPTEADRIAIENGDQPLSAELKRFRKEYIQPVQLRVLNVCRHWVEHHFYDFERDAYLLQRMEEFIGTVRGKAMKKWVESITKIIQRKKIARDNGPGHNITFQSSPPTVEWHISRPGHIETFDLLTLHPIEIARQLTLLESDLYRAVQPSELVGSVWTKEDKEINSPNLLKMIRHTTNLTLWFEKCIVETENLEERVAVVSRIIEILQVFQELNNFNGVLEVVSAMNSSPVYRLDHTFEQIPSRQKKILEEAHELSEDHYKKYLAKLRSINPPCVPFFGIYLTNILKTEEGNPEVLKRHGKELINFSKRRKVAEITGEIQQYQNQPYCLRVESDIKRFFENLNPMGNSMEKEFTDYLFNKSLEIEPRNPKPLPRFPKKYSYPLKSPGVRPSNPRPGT
Method in brief: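 A FITC-conjugated probe compound was incubated with SOS in buffer, and its displacement was tracked as a change in fluorescence anisotropy across a test-compound dose range. IC50 came from a four-parameter variable-slope fit, and binding affinity was calculated from it.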

Ras GEF SOS (Son of Sevenless), sequence (P01112 1-166 partner limits assumed, one chain of several): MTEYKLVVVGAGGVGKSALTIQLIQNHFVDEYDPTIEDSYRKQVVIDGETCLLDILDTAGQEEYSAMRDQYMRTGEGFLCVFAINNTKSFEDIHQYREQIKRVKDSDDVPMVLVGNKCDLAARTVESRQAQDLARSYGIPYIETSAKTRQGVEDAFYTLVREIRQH

## Fc1ccc(Cn2c(N3CCNCC3)nc3ccc(Br)cc32)cc1Cl [Example 63, 6-bromo-1-(3-chloro-4-fluorobenzyl)-2-(piperazin-1-yl)-1H-benzo[d]imidazole trifluoroacetate]
[1]
  EC50: < 1 µM
Son of Sevenless (SOS)
  Ki: 0.5 to 1 µM

## COc1ccc(-n2nccc2-c2cc(Cl)cc3c2nc(N2CCNCC2)n3Cc2ccc(F)c(Cl)c2)cc1 [Example 168, 6-chloro-1-(3-chloro-4-fluorobenzyl)-4-(1-(4-methoxyphenyl)-1H-pyrazol-5-yl)-2-(piperazin-1-yl)-1H-benzo[d]imidazole trifluoroacetate]
[1]
  EC50: 1 to 5 µM
Son of Sevenless (SOS)
  Ki: 0.5 to 1 µM

## Cc1cc2c(nc(N3CCNCC3)n2Cc2ccc(F)c(Cl)c2)c(CCN)c1C [Example 101, 2-(1-(3-chloro-4-fluorobenzyl)-5,6-dimethyl-2-(piperazin-1-yl)-1H-benzo[d]imidazol-4-yl)ethan-1-amine trifluoroacetate]
[1]
  EC50: 1 to 5 µM
Son of Sevenless (SOS)
  Ki: 1 to 5 µM

## Cc1cc2nc(N3CCCNCC3)n(Cc3ccc(F)c(Cl)c3)c2cc1C [Example 36, 1-(3-chloro-4-fluorobenzyl)-2-(1,4-diazepan-1-yl)-5,6-dimethyl-1H-benzo[d]imidazole trifluoroacetate]
[1]
  EC50: 5 to 30 µM
Son of Sevenless (SOS)
  Ki: > 5 µM

## CC(C)CN1CC[C@@H](C(=O)c2ccccc2)[C@H]1c1cc(Cl)cc2c1nc(N1CCNCC1)n2Cc1ccc(F)c(Cl)c1 [Example 150, ((2S,3R)-2-(6-chloro-1-(3-chloro-4-fluorobenzyl)-2-(piperazin-1-yl)-1H-benzo[d]imidazol-4-yl)-1-isobutylpyrrolidin-3-yl)(phenyl)methanone trifluoroacetate]
[1]
  EC50: 5 to 30 µM
Son of Sevenless (SOS)
  Ki: > 5 µM

## CNCCN(C)c1cc(C)cc2c1nc(N1CCNCC1)n2Cc1cc(C)c(F)c(C)c1 [Example 192, N^1-(1-(4-fluoro-3,5-dimethylbenzyl)-6-methyl-2-(piperazin-1-yl)-1H-benzo[d]imidazol-4-yl)-N^1,N^2-dimethylethane-1,2-diamine trifluoroacetate]
[1]
  EC50: 1 to 5 µM
Son of Sevenless (SOS)
  Ki: 0.5 to 1 µM

## CN(CCCO)Cc1cc(Cl)cc2c1nc(N1CCNCC1)n2Cc1ccc(F)c(Cl)c1 [Example 135, 3-(((6-chloro-1-(3-chloro-4-fluorobenzyl)-2-(piperazin-1-yl)-1H-benzo[d]imidazol-4-yl)methyl)(methyl)amino)propan-1-ol trifluoroacetate]
[1]
  EC50: < 1 µM
Son of Sevenless (SOS)
  Ki: 1 to 5 µM

## Nc1ccccc1-c1cccc2c1nc(N1CCNCC1)n2Cc1ccc(F)c(Cl)c1 [Example 83, 2-(1-(3-chloro-4-fluorobenzyl)-2-(piperazin-1-yl)-1H-benzo[d]imidazol-4-yl)aniline trifluoroacetate]
[1]
  EC50: 1 to 5 µM
Son of Sevenless (SOS)
  Ki: 1 to 5 µM

## CCCN1CC[C@@H](C(=O)c2ccccc2)C1c1cc(Cl)cc2c1nc(N1CCNCC1)n2Cc1ccc(F)c(Cl)c1 (stereo in doubt) [Example 154, ((2S,3R)-2-(6-chloro-1-(3-chloro-4-fluorobenzyl)-2-(piperazin-1-yl)-1H-benzo[d]imidazol-4-yl)-1-propylpyrrolidin-3-yl)(phenyl)methanone trifluoroacetate]
[1]
  EC50: 1 to 5 µM
Son of Sevenless (SOS)
  Ki: 1 to 5 µM

## Cc1ccc2nc([C@@H]3CCC(=O)N3)n(Cc3ccc(F)c(Cl)c3)c2c1 [Example 274, (5S)-5-[1-[(3-chloro-4-fluorophenyl)methyl]-6-methylbenzimidazol-2-yl]pyrrolidin-2-one]
[1]
  EC50: 1 to 5 µM
Son of Sevenless (SOS)
  Ki: > 5 µM

## Cc1cc2c(nc(N3CCNCC3)n2Cc2ccc(F)c(C)c2)c(-c2ccncc2)n1 [Example 226, 1-(4-fluoro-3-methylbenzyl)-6-methyl-2-(piperazin-1-yl)-4-(pyridin-4-yl)-1H-imidazo[4,5-c]pyridine]
[1]
  EC50: 5 to 30 µM
Son of Sevenless (SOS)
  Ki: > 5 µM

## Cc1cc2nc(N3CCNCC3)n(Cc3cccc(Br)c3)c2cc1C [Example 34, 1-(3-bromobenzyl)-5,6-dimethyl-2-(piperazin-1-yl)-1H-benzo[d]imidazole trifluoroacetate]
[1]
  EC50: 5 to 30 µM
Son of Sevenless (SOS)
  Ki: > 5 µM

## Cc1cc(N2CCC(N)CC2)c2nc(N3CCNCC3)n(Cc3cc(C)c(F)c(C)c3)c2c1 [Example 188, 1-(1-(4-fluoro-3,5-dimethylbenzyl)-6-methyl-2-(piperazin-1-yl)-1H-benzo[d]imidazol-4-yl)piperidin-4-amine trifluoroacetate]
[1]
  EC50: 1 to 5 µM
Son of Sevenless (SOS)
  Ki: 0.5 to 1 µM

## CCCN1CC[C@@H](C(=O)c2ccccc2)[C@H]1c1cc(Cl)cc2c1nc(N1CCNCC1)n2Cc1cc(C)c(F)c(C)c1 [Example 148, ((2S,3R)-2-(6-chloro-1-(4-fluoro-3,5-dimethylbenzyl)-2-(piperazin-1-yl)-1H-benzo[d]imidazol-4-yl)-1-propylpyrrolidin-3-yl)(phenyl)methanone trifluoroacetate]
[1]
  EC50: 1 to 5 µM
Son of Sevenless (SOS)
  Ki: 0.5 to 1 µM

## Cc1cc2nc(NCCCN)n(Cc3cc(C)c(F)c(C)c3)c2cc1C [Example 43, N^1-(1-(4-fluoro-3,5-dimethylbenzyl)-5,6-dimethyl-1H-benzo[d]imidazol-2-yl)propane-1,3-diamine trifluoroacetate]
[1]
  EC50: 5 to 30 µM
Son of Sevenless (SOS)
  Ki: > 5 µM

## Cc1cc2c(nc(N3CCNCC3)n2Cc2ccc(F)c(Cl)c2)c(-c2cccnc2)c1C [Example 265, 1-[(3-chloro-4-fluorophenyl)methyl]-5,6-dimethyl-2-piperazin-1-yl-4-pyridin-3-ylbenzimidazole]
[1]
  EC50: 1 to 5 µM
Son of Sevenless (SOS)
  Ki: 1 to 5 µM

## Cc1cc(Cn2c(NCCN)nc3c(-c4ccccc4OC(C)C)cc(Cl)cc32)cc(C)c1F [Example 308, N^1-(6-chloro-1-(4-fluoro-3,5-dimethylbenzyl)-4-(2-isopropoxyphenyl)-1H-benzo[d]imidazol-2-yl)ethane-1,2-diamine]
[1]
  EC50: 1 to 5 µM
Son of Sevenless (SOS)
  Ki: < 0.5 µM

## CC(C)Cn1nccc1-c1cc(Cl)cc2c1nc(N1CCNCC1)n2Cc1ccc(F)c(Cl)c1 [Example 174, 6-chloro-1-(3-chloro-4-fluorobenzyl)-4-(1-isobutyl-1H-pyrazol-5-yl)-2-(piperazin-1-yl)-1H-benzo[d]imidazole trifluoroacetate]
[1]
  EC50: 1 to 5 µM
Son of Sevenless (SOS)
  Ki: < 0.5 µM

## Cc1cc(Cn2c(N3CCNCC3)nc3c(OC4CCN(C)CC4)cccc32)ccc1F [Example 205, 1-(4-fluoro-3-methylbenzyl)-4-((1-methylpiperidin-4-yl)oxy)-2-(piperazin-1-yl)-1H-benzo[d]imidazole]
[1]
  EC50: < 1 µM
Son of Sevenless (SOS)
  Ki: 1 to 5 µM

## Cc1cc2nc(N3CCNCC3)n(Cc3ccc(Cl)cc3)c2cc1C [Example 19, 1-(4-chlorobenzyl)-5,6-dimethyl-2-(piperazin-1-yl)-1H-benzo[d]imidazole trifluoroacetate]
[1]
  EC50: 5 to 30 µM
Son of Sevenless (SOS)
  Ki: > 5 µM

## Cc1cc(OCCN2CCN(C)CC2)c2nc(NCCN)n(Cc3cc(C)c(F)c(C)c3)c2c1 [Example 331, N^1-(1-(4-fluoro-3,5-dimethylbenzyl)-6-methyl-4-(2-(4-methylpiperazin-1-yl)ethoxy)-1H-benzo[d]imidazol-2-yl)ethane-1,2-diamine]
[1]
  EC50: < 1 µM
Son of Sevenless (SOS)
  Ki: 0.5 to 1 µM

## Cc1cc(Cn2c(N3CCNCC3)nc3c(OCCN4CCN(C)CC4)cccc32)ccc1F [Example 209, 1-(4-fluoro-3-methylbenzyl)-4-(2-(4-methylpiperazin-1-yl)ethoxy)-2-(piperazin-1-yl)-1H-benzo[d]imidazole]
[1]
  EC50: < 1 µM
Son of Sevenless (SOS)
  Ki: > 5 µM

## Cc1cc2nc(N3CCNCC3)n(Cc3ccc(F)c(Cl)c3)c2cc1C [Example 16, 1-(3-chloro-4-fluorobenzyl)-5,6-dimethyl-2-(piperazin-1-yl)-1H-benzo[d]imidazole trifluoroacetate]
[1]
  EC50: 1 to 5 µM
Son of Sevenless (SOS)
  Ki: 1 to 5 µM

## Cc1cc2c(nc(N3CCNCC3)n2Cc2ccc(F)c(C)c2)c(CNCC(C)C)n1 [Example 231, N-((1-(4-fluoro-3-methylbenzyl)-6-methyl-2-(piperazin-1-yl)-1H-imidazo[4,5-c]pyridin-4-yl)methyl)-2-methylpropan-1-amine]
[1]
  EC50: 5 to 30 µM
Son of Sevenless (SOS)
  Ki: > 5 µM

## Cc1cc(OCC2CCNCC2)c2nc(NCCN)n(Cc3cc(C)c(F)c(C)c3)c2c1 [Example 330, N^1-(1-(4-fluoro-3,5-dimethylbenzyl)-6-methyl-4-(piperidin-4-ylmethoxy)-1H-benzo[d]imidazol-2-yl)ethane-1,2-diamine]
[1]
  EC50: < 1 µM
Son of Sevenless (SOS)
  Ki: 0.5 to 1 µM

## COc1ccccc1-c1nc(C)cc2c1nc(N1CCNCC1)n2Cc1ccc(F)c(C)c1 [Example 228, 1-(4-fluoro-3-methylbenzyl)-4-(2-methoxyphenyl)-6-methyl-2-(piperazin-1-yl)-1H-imidazo[4,5-c]pyridine]
[1]
  EC50: 5 to 30 µM
Son of Sevenless (SOS)
  Ki: > 5 µM

## Fc1ccc(Cn2c(N3CCNCC3)nc3ccccc32)cc1 [Example 10, 1-(4-fluorobenzyl)-2-(piperazin-1-yl)-1H-benzo[d]imidazole trifluoroacetate]
[1]
  EC50: 30 to 100 µM
Son of Sevenless (SOS)
  Ki: > 5 µM
